Test results as given in ChEMBL document CHEMBL3627608, “Crystal structures of human RIP2 kinase catalytic domain complexed with ATP-competitive inhibitors: Foundations for understanding inhibitor selectivity” (Bioorg Med Chem, 2015).

Tests used:
[1] = biological target: CDK9/cyclin T1 (Homo sapiens) (UniProt O60563+P50750); experiment: Inhibition of CDK9/cyclin T1 (unknown origin) at 10 uM after 120 mins P33 radiolabeled kinase activity assay; format: protein-complex assay
[2] = biological target: T1, Serine/threonine-protein kinase TAO3 (Homo sapiens) (UniProt Q9H2K8); experiment: Inhibition of TAOK3 (unknown origin) at 10 uM after 120 mins P33 radiolabeled kinase activity assay
T1 sequence (whole entry): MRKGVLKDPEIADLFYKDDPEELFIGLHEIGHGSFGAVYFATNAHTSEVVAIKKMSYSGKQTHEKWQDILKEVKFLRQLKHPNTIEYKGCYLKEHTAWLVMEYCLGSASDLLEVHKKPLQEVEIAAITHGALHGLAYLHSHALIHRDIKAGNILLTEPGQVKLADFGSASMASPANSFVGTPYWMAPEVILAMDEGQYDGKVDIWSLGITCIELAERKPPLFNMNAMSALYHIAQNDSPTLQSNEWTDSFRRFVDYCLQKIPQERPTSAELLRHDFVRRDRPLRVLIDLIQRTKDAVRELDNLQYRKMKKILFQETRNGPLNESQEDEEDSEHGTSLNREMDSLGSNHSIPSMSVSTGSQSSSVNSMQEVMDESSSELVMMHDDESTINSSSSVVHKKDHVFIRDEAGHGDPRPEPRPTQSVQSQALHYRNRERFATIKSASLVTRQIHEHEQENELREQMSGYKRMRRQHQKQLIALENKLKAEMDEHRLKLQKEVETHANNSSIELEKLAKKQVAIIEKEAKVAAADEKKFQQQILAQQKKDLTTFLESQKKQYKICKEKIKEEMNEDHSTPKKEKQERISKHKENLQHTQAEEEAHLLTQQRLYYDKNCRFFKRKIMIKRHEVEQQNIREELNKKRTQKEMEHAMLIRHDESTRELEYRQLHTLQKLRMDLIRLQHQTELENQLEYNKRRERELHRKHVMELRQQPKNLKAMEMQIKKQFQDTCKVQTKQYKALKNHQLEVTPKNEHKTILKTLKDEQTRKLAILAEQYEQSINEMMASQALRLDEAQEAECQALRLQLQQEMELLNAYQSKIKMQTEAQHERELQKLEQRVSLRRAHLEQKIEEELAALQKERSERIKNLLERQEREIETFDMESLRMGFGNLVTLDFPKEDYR

[3] = biological target: CDK2/Cyclin A1 (Homo sapiens) (UniProt P24941+P78396); experiment: Inhibition of CDK2/Cyclin A1 (unknown origin) at 10 uM after 120 mins P33 radiolabeled kinase activity assay; format: protein-complex assay
[4] = biological target: Serine/threonine-protein kinase MARK1 (Homo sapiens) (UniProt Q9P0L2); experiment: Inhibition of MARK1 (unknown origin) at 10 uM after 120 mins P33 radiolabeled kinase activity assay
[5] = biological target: T2, Serine/threonine-protein kinase D1 (Homo sapiens) (UniProt Q15139); experiment: Inhibition of PKCmu (unknown origin) at 10 uM after 120 mins P33 radiolabeled kinase activity assay
T2 sequence (whole entry): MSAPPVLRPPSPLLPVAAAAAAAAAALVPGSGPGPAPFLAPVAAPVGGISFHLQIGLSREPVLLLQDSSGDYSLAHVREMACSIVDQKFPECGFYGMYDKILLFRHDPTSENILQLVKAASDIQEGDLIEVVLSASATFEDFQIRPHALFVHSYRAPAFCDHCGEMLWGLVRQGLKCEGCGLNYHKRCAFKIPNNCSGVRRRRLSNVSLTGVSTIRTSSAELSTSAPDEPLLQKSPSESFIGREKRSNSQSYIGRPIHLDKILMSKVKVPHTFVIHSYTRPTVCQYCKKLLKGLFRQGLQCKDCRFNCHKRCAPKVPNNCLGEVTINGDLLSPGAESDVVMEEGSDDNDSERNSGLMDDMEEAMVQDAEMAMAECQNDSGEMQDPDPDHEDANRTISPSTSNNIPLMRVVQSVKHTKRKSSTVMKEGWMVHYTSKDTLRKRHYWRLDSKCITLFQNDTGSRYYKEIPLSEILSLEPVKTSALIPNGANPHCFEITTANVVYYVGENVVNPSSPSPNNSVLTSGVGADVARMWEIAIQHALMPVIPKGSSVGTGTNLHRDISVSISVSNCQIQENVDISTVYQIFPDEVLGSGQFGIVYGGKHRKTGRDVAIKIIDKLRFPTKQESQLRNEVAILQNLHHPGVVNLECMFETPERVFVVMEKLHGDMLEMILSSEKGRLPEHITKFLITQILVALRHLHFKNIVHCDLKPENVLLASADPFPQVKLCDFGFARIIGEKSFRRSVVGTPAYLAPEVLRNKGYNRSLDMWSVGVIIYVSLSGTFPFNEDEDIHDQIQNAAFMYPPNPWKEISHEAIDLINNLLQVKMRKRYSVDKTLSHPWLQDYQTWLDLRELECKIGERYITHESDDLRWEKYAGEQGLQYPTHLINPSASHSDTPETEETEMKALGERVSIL

[6] = biological target: T3, Tyrosine-protein kinase ITK/TSK (Homo sapiens) (UniProt Q08881); experiment: Inhibition of ITK (unknown origin) at 10 uM after 120 mins P33 radiolabeled kinase activity assay
T3 sequence (whole entry): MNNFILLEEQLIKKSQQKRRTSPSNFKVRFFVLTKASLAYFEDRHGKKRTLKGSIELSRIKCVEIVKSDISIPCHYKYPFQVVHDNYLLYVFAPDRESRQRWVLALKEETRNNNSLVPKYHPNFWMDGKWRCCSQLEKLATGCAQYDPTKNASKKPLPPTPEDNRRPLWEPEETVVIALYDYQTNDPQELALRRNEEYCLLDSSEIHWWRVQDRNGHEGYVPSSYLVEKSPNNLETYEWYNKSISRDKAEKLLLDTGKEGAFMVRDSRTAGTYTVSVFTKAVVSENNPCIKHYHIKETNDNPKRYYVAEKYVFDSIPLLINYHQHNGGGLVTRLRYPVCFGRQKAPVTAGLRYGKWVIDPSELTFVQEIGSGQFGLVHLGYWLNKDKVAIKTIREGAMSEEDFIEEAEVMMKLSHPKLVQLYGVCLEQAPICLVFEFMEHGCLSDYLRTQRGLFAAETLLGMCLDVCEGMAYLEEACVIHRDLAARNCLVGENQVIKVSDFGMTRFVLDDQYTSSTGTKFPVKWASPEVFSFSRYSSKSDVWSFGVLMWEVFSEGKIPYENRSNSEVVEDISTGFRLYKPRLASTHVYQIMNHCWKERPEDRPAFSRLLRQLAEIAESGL

Sequence of Serine/threonine-protein kinase MARK1 (Homo sapiens) (Q9P0L2 whole entry, looked up): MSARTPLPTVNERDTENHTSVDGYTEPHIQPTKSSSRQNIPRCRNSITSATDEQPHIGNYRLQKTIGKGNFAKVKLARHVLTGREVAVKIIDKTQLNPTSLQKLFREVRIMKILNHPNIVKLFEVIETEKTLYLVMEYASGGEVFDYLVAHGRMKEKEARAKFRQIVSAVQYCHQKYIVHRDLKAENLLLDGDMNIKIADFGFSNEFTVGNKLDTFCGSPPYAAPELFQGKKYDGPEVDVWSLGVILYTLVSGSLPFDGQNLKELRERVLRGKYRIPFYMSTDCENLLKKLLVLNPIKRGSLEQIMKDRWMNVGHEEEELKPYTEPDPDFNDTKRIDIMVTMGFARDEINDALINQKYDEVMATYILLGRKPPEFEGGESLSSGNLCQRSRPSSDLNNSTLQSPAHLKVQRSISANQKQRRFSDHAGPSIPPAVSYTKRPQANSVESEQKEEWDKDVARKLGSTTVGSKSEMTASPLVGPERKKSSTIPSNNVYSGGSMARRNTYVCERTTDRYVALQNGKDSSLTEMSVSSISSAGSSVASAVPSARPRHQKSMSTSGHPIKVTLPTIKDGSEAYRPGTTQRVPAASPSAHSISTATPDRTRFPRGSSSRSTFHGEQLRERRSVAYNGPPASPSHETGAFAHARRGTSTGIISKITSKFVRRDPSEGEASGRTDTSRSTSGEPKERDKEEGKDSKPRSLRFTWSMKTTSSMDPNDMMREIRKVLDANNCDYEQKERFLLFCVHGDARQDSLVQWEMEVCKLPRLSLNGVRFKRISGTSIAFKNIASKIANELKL

SMILES: CS(=O)(=O)c1cccc(Nc2nccc(-c3sc(N4CCOCC4)nc3-c3cccc(NS(=O)(=O)c4c(F)cccc4F)c3)n2)c1
- inhibition [1]: 25.4%
- inhibition [2]: 26.7%
- inhibition [3]: 43.5%
- inhibition [4]: 10.3%
- inhibition [5]: 100%
- inhibition [6]: 96.8%

SMILES: COCCNC(=O)c1ccc2c(c1)nc(-c1cnc(-c3ccc(Cl)cc3)[nH]1)n2CCOC
- inhibition [1]: 5.79%
- inhibition [2]: -0.26%
- inhibition [3]: 18.1%
- inhibition [4]: 3.28%
- inhibition [5]: 12.1%
- inhibition [6]: 15.1%

SMILES: CC(C)(C)c1cc(NC(=O)Nc2ccc(Oc3ccncc3)cc2)no1
- inhibition [1]: 78.7%
- inhibition [2]: 51%
- inhibition [3]: 51.4%
- inhibition [4]: 4.99%
- inhibition [5]: 19.5%
- inhibition [6]: 15.4%
